From patent US9815836B2, “Macrocyclic compounds as IRAK1/4 inhibitors and uses thereof” (Merck Patent GmbH, priority 2015, dated 2017)
Where two headings read alike, the source gives them in different places.

Legend:
IRAK4 = IRAK4 (Homo sapiens (Human), UniProt Q9NWZ3); assay: IRAK4 enzymatic assay (ADP-Glo luminescence); assay type: biochemical; details: human purified recombinant His-TEV-IRAK4 (1-460), ATP 2 μM, STK1-biotin peptide 300 nM
Procedure: IRAK4 is a human purified recombinant enzyme (His-TEV-IRAK4 (1-460)).
In this assay, IRAK4 hydrolyses ATP, autophosphorylates and phosphorylates a Serine/Threonine generic peptidic substrate (STK: 61ST1BLC from CisBio International). Measurement of IRAK-4 inhibition is performed in 384-well format based on a luminescence assay (ADP-Glo™ Kinase Assay from Promega). Purified human recombinant IRAK4 (0.3 μg/ml) and serial diluted compounds in DMSO (range of concentration from 10 μM to 0.5 nM) or controls (1% DMSO) are incubated for 15 minutes at RT in assay buffer containing 50 mM Hepes pH 7.0, Fatty acid-free BSA 0.1%, Dithiothreitol (DTT) 2 mM, MgCl2 10 mM, EGTA 0.5 mM, Triton X-100 0.01%, MnCl2 5 mM. The kinase reaction is then initiated by the addition of ATP (2 μM) and the peptidic substrate STK1-biotin peptide (300 nM). After 2 hours of incubation at RT, the reaction is stopped and the unconsumed ATP depleted by the addition of ADP-Glo™ Reagent according to supplier instructions. After 40 minutes of incubation at RT, the Kinase Detection Reagent is then added to the assay plate according to supplier instructions. After 20 minutes of incubation at RT, the luminescence signal is measured with a plate-reading luminometer (PerkinElmer Envision or equivalent reader).

IRAK1 = IRAK1 (Homo sapiens (Human), UniProt P51617); assay: IRAK1 enzymatic assay (ADP-Glo luminescence); assay type: biochemical
Procedure: In this assay, IRAK1 hydrolyses ATP and autophosphorylates. Measurement of IRAK-1 inhibition is performed in 384-well format based on luminescence assay (ADP-Glo™ Kinase Assay from Promega). Purified human recombinant IRAK1 ([…]) and serial diluted compounds in DMSO (range of concentration from 10 μM to 0.5 nM) or controls (1% DMSO) are incubated for 15 minutes at RT in assay buffer containing 50 mM Hepes pH 7.0, Fatty acid-free BSA 0.1%, Dithiothreitol (DTT) 2 mM, MgCl2 10 mM, EGTA 0.5 mM, Triton X-100 0.01%. The kinase reaction is then initiated by the addition of ATP at a concentration of 1μM. After 2 hours of incubation at RT, the reaction is stopped and the unconsumed ATP depleted by the addition of ADP-Glo™ Reagent according to supplier instructions. After 40 minutes of incubation at RT, the Kinase Detection Reagent is then added to the assay plate according to supplier instructions. After 20 minutes of incubation at RT, the luminescence signal is measured with a luminometer (PerkinElmer Envision or equivalent reader).

[1] = human purified recombinant His-TEV-IRAK1 (194-712), ATP 1 μM, read-out: IRAK1 IC50

Chain of IRAK4 (Q9NWZ3 whole entry): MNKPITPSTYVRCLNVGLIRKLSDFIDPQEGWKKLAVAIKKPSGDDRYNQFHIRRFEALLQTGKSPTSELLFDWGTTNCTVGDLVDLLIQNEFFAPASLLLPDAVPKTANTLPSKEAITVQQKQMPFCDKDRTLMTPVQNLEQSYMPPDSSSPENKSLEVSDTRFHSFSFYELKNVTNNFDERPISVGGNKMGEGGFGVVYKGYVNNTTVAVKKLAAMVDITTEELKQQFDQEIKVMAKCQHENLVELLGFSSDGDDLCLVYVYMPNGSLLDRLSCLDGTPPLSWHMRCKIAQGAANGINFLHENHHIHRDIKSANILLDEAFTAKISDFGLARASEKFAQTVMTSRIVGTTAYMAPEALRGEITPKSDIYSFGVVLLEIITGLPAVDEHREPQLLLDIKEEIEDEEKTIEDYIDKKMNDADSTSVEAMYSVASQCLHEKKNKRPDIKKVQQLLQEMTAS
Chain of IRAK1 (P51617 194-712): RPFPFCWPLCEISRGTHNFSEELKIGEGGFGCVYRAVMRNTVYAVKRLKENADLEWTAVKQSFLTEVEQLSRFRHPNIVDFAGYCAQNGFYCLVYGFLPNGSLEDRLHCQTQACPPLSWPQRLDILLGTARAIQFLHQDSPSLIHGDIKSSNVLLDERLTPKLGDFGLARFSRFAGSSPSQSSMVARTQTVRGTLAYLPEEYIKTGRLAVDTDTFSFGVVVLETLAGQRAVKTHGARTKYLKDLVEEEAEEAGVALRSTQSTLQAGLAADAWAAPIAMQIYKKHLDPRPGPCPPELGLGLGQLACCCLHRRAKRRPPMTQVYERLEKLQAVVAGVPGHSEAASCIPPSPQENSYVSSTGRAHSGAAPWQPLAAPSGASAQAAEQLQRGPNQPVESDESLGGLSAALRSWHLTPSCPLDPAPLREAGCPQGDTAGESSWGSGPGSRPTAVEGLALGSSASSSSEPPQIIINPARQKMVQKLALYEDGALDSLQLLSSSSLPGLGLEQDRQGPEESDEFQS

SMILES | ring closure, yield after HPLC (the molecule shown is the open-chain precursor, multicomponent bond, 20-membered ring, Cs2CO3/KI, microwave, DMSO, 22.0 mM, 110.0 °C) [%] | IC50 (IRAK4) [nM] | ring closure, yield after HPLC (from NCCOCCn1cc(-c2cccc(C(=O)Nc3cn(C4CCOCC4)nc3C(=O)[O-])c2)cn1, amide bond, 17-membered ring, BOP/DIEA, DMF, 20.7 mM) [%] | IC50 (IRAK1; [1]) [nM] | IC50 (IRAK1) [nM]
Cn1cc(NC(=O)c2cccc(-c3cnn(CCCl)c3)n2)c(C(=O)NC2CCNC[C@H]2O)n1 (some centres unmarked) | 23.6 | – | – | – | –
O=C1Nc2cn(C3CCOCC3)nc2C(=O)NCCOCCn2cc(cn2)-c2cccc1c2 [Compound 20, 15-(oxan-4-yl)-8-oxa-4,5,11,14,15,18-hexaazatetracyclo[18.3.1.1^2,^5.0^13,^1^7]pentacosa-1(23),2(25),3,13,16,20(24),21-heptaene-12,19-dione] | – | > 5000 | 21.8 | > 5000 | –
Cn1cc2c(n1)C(=O)NCCC/C=C\Cn1cc(cn1)-c1cccc(n1)C(=O)N2 [Compound 37, (7Z)-16-methyl-4,5,12,15,16,19,25-heptaazatetracyclo[19.3.1.1^2,^5.0^1^4,^1^8]hexacosa-1(24),2(26),3,7,14,17,21(25),22-octaene-13,20-dione] | – | < 100 | – | – | 100 to 1000
Cn1cc2c(n1)C(=O)NCCCC#CCn1cc(cn1)-c1cccc(n1)C(=O)N2 [Compound 38, 16-methyl-4,5,12,15,16,19,25-heptaazatetracyclo[19.3.1.1^2,^5.0^1^4,^1^8]hexacosa-1(24),2(26),3,14,17,21 (25),22-heptaen-7-yne-13,20-dione] | – | < 100 | – | < 100 | –
